# ChEMBL document CHEMBL6071133, “Discovery of novel penetrating peptides able to target human leukemia and lymphoma for enhanced PROTAC delivery” (Eur J Med Chem, 2024)
# Activity calls are given as the source filed them. The calls are words filed in the database; no cut-off is given here. Square brackets hold non-standard residues; d marks the D form. Peptide text beside a SMILES is read from it. Bta = N[C@@H](Cc1csc2ccccc12)C(=O)O
# Experiments:
# [1] = Drug uptake in human K562 cells assessed as membrane penetration by measuring increase in fluorescence intensity at 5 umol/L incubated for 2 hrs by flow cytometry relative to C9C; type: ADME, cell-based; conditions: k562, 2 h, 5 µM, dose 5 µmol/L
# [2] = Drug uptake in human KU812 cells assessed as membrane penetration by measuring increase in fluorescence intensity at 5 umol/L incubated for 2 hrs by flow cytometry relative to C9C; type: ADME, cell-based; conditions: ku812, 2 h, 5 µM, dose 5 µmol/L
# [3] = Drug uptake in human K562 cells assessed as membrane permeability by measuring increase in fluorescence intensity at 5 umol/L incubated for 2 hrs by flow cytometry relative to THP-1 cells; type: ADME, cell-based; conditions: k562, 2 h, 5 µM, dose 5 µmol/L
# [4] = Drug uptake in human KU812 cells assessed as membrane permeability by measuring increase in fluorescence intensity at 5 umol/L incubated for 2 hrs by flow cytometry relative to THP-1 cells; type: ADME, cell-based; conditions: ku812, 2 h, 5 µM, dose 5 µmol/L
# [5] = Drug uptake in human K562 cells assessed as increase in fluorescence intensity at 1 to 10 uM incubated for 2 hrs by flow cytometry; type: ADME, cell-based; conditions: k562, 2 h, dose 1-10 µM
# [6] = Drug uptake in human KU812 cells assessed as increase in fluorescence intensity at 1 to 10 uM incubated for 2 hrs by flow cytometry; type: ADME, cell-based; conditions: ku812, 2 h, dose 1-10 µM
# [7] = Drug uptake in human K562 cells assessed as increase in fluorescence intensity at 5 umol/L measured for 5 to 30 mins by flow cytometry; type: ADME, cell-based; conditions: k562, 5 µM, TDE = time-dependent effect, time 5-30 min, dose 5 µmol/L
# [8] = Drug uptake in human K562 cells assessed as increase in fluorescence intensity at 5 umol/L measured for 60 to 240 mins by flow cytometry; type: ADME, cell-based; conditions: k562, 5 µM, TDE = time-dependent effect, time 60-240 min, dose 5 µmol/L
# [9] = Drug uptake in human K562 cells assessed as increase in fluorescence intensity at 1 to 10 umol/L incubated for 2 hrs by cell imaging based fluorescence microscopic analysis; type: ADME; conditions: k562, 2 h, dose 1-10 µmol/L
# [10] = Drug uptake in human KU812 cells assessed as increase in fluorescence intensity at 1 to 10 umol/L incubated for 2 hrs by cell imaging based fluorescence microscopic analysis; type: ADME; conditions: ku812, 2 h, dose 1-10 µmol/L
# [11] = Drug uptake in human K562 cells assessed as perinuclear distribution and colocalization with nucleus at 10 umol/L incubated for 2 hrs by confocal laser microscopy; type: ADME, cell-based; conditions: k562, 2 h, 10 µM, dose 10 µmol/L
# [12] = Drug uptake in human KU812 cells assessed as perinuclear distribution and colocalization with nucleus at 10 umol/L incubated for 2 hrs by confocal laser microscopy; type: ADME, cell-based; conditions: ku812, 2 h, 10 µM, dose 10 µmol/L
# [13] = Drug uptake in human CCRF-CEM cells assessed as perinuclear distribution and colocalization with nucleus at 10 umol/L incubated for 2 hrs by confocal laser microscopy; type: ADME, cell-based; conditions: 10 µM, dose 10 µmol/L
# [14] = Drug uptake in human K562 cells assessed as increase in fluorescence intensity at 5 umol/L pretreated with endocytosis inhibitor, nystatin for 0.5 hrs followed by incubation with compound for 2 hrs by FACS analysis; type: ADME, cell-based; conditions: k562, 2 h, 5 µM, dose 5 µmol/L
# [15] = Drug uptake in human K562 cells assessed as fluorescence intensity at 5 umol/L pretreated with endocytosis inhibitor, chloroquine for 0.5 hrs followed by incubation with compound for 2 hrs by FACS analysis; type: ADME, cell-based; conditions: k562, 2 h, 5 µM, dose 5 µmol/L
# [16] = Drug uptake in human K562 cells assessed as fluorescence intensity at 5 umol/L pretreated with endocytosis inhibitor, chlorpromazine for 0.5 hrs followed by incubation with compound for 2 hrs by FACS analysis; type: ADME, cell-based; conditions: k562, 2 h, 5 µM, dose 5 µmol/L
# [17] = Drug uptake in human K562 cells assessed as fluorescence intensity at 5 umol/L pretreated with endocytosis inhibitor, methyl-beta-cyclodextrin for 0.5 hrs followed by incubation with compound for 2 hrs by FACS analysis; type: ADME, cell-based; conditions: k562, 2 h, 5 µM, dose 5 µmol/L
# [18] = Stability of the compound in fetal bovine serum assessed as parent compound remaining measured after 8 hrs by HPLC-MS analysis; type: ADME, cell-free, Bos taurus; conditions: cattle, read-out: Stability
# [19] = Stability of the compound in fetal bovine serum assessed as parent compound remaining measured after 12 hrs by HPLC-MS analysis; type: ADME, cell-free, Bos taurus; conditions: cattle, read-out: Stability
# [20] = Stability of the compound in fetal bovine serum assessed as parent compound remaining measured after 36 hrs by HPLC-MS analysis; type: ADME, cell-free, Bos taurus; conditions: cattle, read-out: Stability
# K562 [21] = test: Potentiation of IMA-PROTAC-induced cytotoxicity against human K562 cells assessed as inhibition of cell growth at compound: IMA-PROTAC concentration ratio of 5:1 incubated for 48 hrs in presence of 3 umo/L IMA-PROTAC by MTT assay; type: functional, cell-based
# [22] = Cytotoxicity against human K562 cells assessed as cell viability at 0.01 to 100 uM incubated for 48 hrs by MTT assay; type: toxicity, cell-based; conditions: dose 0.01-100 µM, read-out: Activity
# [23] = Cytotoxicity against human KU812 cells assessed as cell viability at 0.01 to 100 uM incubated for 48 hrs by MTT assay; type: toxicity, cell-based; conditions: dose 0.01-100 µM, read-out: Activity
# [24] = Cytotoxicity against human CCRF-CEM cells assessed as cell viability at 0.01 to 100 uM incubated for 48 hrs by MTT assay; type: toxicity, cell-based; conditions: dose 0.01-100 µM, read-out: Activity
# [25] = Cytotoxicity against human THP-1 cells assessed as cell viability at higher concentrations incubated for 48 hrs by MTT assay; type: toxicity, cell-based; conditions: read-out: Activity
# K562 [26] = test: Increase in membrane permeability of IMA-PROTAC in human K562 cells assessed as potentiation of IMA-PROTAC-induced inhibition of STAT5 phosphorylation at PROTAC to compound concentration ratio of 1:5 to 1:3 incubated for 48 hrs in presence of 3 umol/L IMA-PROTAC by western blot analysis; type: functional, cell-based
# K562 [27] = test: Induction of apoptosis in human K562 cells assessed as viable cells at PROTAC to compound concentration ratio of 1:5 incubated for 48 hrs in presence of 3 umol/L IMA-PROTAC by AnnexinV-FITC/PI staining based flow cytometry (reference value: 99.85%); type: functional
# K562 [28] = test: Induction of apoptosis in human K562 cells assessed as early apoptotic cells at PROTAC to compound concentration ratio of 1:5 incubated for 48 hrs in presence of 3 umol/L IMA-PROTAC by AnnexinV-FITC/PI staining based flow cytometry (reference value: 0.03%); type: functional
# K562 [29] = test: Induction of apoptosis in human K562 cells assessed as late apoptotic cells at PROTAC to compound concentration ratio of 1:5 incubated for 48 hrs in presence of 3 umol/L IMA-PROTAC by AnnexinV-FITC/PI staining based flow cytometry (reference value: 0.01%); type: functional
# K562 [30] = test: Induction of apoptosis in human K562 cells assessed as necrotic cells at PROTAC to compound concentration ratio of 1:5 incubated for 48 hrs in presence of 3 umol/L IMA-PROTAC by AnnexinV-FITC/PI staining based flow cytometry (reference value: 0.1%); type: functional
# K562 [31] = test: Induction of cell cycle arrest in human K562 cells assessed as accumulation of cells at G2/M phase at PROTAC to compound concentration ratio of 1:5 incubated for 48 hrs in presence of 3 umol/L IMA-PROTAC by propidium iodide staining based flow cytometry; type: functional
# [32] = Interaction with IMA-PROTAC assessed as induction of formation of micelle cluster with uniform and distinct spherical morphology by transmission electron microscopy; type: physicochemical
# [33] = Interaction with IMA-PROTAC assessed as induction of assembly formation by transmission electron microscopy; type: physicochemical
# [34] = Increase in membrane permeation of IMA-PROTAC in human K562 cells assessed as increase in intracellular content of IMA-PROTAC incubated for 3 hrs by HPLC-MRM-MS analysis relative to control; type: functional
# K562 [35] = test: Increase in membrane permeability of IMA-PROTAC in human K562 cells assessed as potentiation of IMA-PROTAC-induced Bcr-Abl degradation at PROTAC to compound concentration ratio of 1:5 to 1:3 incubated for 48 hrs in presence of 3 umol/L IMA-PROTAC by western blot analysis; type: functional, cell-based
smiles,measurement,setting,value
CC(C)C[C@@H]1NC(=O)[C@H](Cc2c[nH]c3ccccc23)NC(=O)[C@H](Cc2ccccc2)NC(=O)[C@H](Cc2ccccc2)NC(=O)CNC(=O)[C@H](CCCCN)NC(=O)[C@H](CCC(=O)O)NC(=O)[C@H](CO)NC(=O)[C@H](CCCNC(=N)N)NC1=O (cyclo(EKGFFWLRS)),fold change (FC),[1],2.8
CC(C)C[C@@H]1NC(=O)[C@H](Cc2c[nH]c3ccccc23)NC(=O)[C@H](Cc2ccccc2)NC(=O)[C@H](Cc2ccccc2)NC(=O)[C@H](CCCNC(=N)N)NC(=O)[C@H](CCCCN)NC(=O)[C@H](CCC(=O)O)NC(=O)[C@H](CO)NC(=O)[C@H](CCCNC(=N)N)NC1=O (cyclo(EKRFFWLRS)),fold change (FC),[1],5.28
same,fold change (FC),[2],5.65
CC(C)C[C@@H]1NC(=O)[C@H](Cc2c[nH]c3ccccc23)NC(=O)[C@H](Cc2ccc(O)cc2)NC(=O)[C@H](Cc2ccccc2)NC(=O)[C@H](CCCNC(=N)N)NC(=O)[C@H](CCCCN)NC(=O)[C@H](CCC(=O)O)NC(=O)[C@H](CO)NC(=O)[C@H](CCCNC(=N)N)NC1=O (cyclo(EKRFYWLRS)),fold change (FC),[1],9.24
same,fold change (FC),[2],7.99
same,fold change (FC),[3],33.3
same,fold change (FC),[4],11.7
same,Drug uptake,[5],Dose-Dependent Effect
same,Drug uptake,[6],Dose-Dependent Effect
same,Drug uptake,[7],Tde
same,Drug uptake,[8],Tde
same,Drug uptake,[9],Active
same,Drug uptake,[10],Active
same,Drug uptake,[11],Active
same,Drug uptake,[12],Active
same,Drug uptake,[13],Active
same,Drug uptake,[14],Active
same,Drug uptake,[15],Not Active
same,Drug uptake,[16],Not Active
same,Drug uptake,[17],Not Active
same,remaining at 8 h,[18],100%
same,remaining at 12 h,[19],80%
same,remaining at 36 h,[20],75%
same,Activity,K562 [21],inactive
same,"viability at 48 h, up to 100 µM",[22],> 75%
same,"viability at 48 h, up to 100 µM",[23],> 75%
same,"viability at 48 h, up to 100 µM",[24],> 75%
same,viability at 48 h,[25],> 75%
same,Activity,K562 [26],Active
same,Activity,K562 [27],87.64%
same,Activity,K562 [28],10.71%
same,Activity,K562 [29],1.58%
same,Activity,K562 [30],0.06%
same,Activity,K562 [31],Active
same,Activity,[32],Not Active
same,Activity,[33],Not Active
same,fold change (FC),[34],2.05
same,Activity,K562 [35],Active
CC(C)C[C@@H]1NC(=O)[C@H](Cc2csc3ccccc23)NC(=O)[C@H](Cc2ccc(O)cc2)NC(=O)[C@H](Cc2ccccc2)NC(=O)[C@H](CCCNC(=N)N)NC(=O)[C@H](CCCCN)NC(=O)[C@H](CCC(=O)O)NC(=O)[C@H](CO)NC(=O)[C@H](CCCNC(=N)N)NC1=O (cyclo([Bta]LRSEKRFY)),fold change (FC),[1],5.04
same,fold change (FC),[2],2.69
